From patent US20060035983A1, “Methods for treating fungal infections” (priority 2002, published 2006)
Converted amounts (≈) assume the structure as drawn.

Test system: Fusarium solani
Assay: Additional fungal species susceptibility testing, Fusarium solani
Format: cell-based
Details: not given
Procedure: (§1) A number of polyoxyethylene alkyl ethers were tested for fungicidal activity against Trichophyton rubrum cultures in vitro according to standard methods (see, Approved Standard M27-A, National Commitee for […] Laboratory Standards, 1997). Briefly, inocula from Trichophyton rubrum were harvested from agar cultures, suspended in 0.85% saline, and diluted to a verified final concentration of […] colony-forming units (CFU) per ml. Suspensions were then treated with various polyoxyethylene alkyl ethers at a range of concentrations, and incubated for 7 days at 30° C. Minimum inhibitory concentrations (MICs) were determined as the lowest concentration of compound that inhibited 100% of fungal growth, as compared with a polyoxyethylene alkyl ether-free control suspension. Minimum fungicidal concentrations (MFCs) were determined as the lowest concentration of compound that killed at least 97% of the original inoculum, as compared with the verified inoculum count. Trichophyton rubrum is the causative organism in 68-100% of patients in onychomycosis trials (Crawford et al. (2002) Archives Dermatol. 138:811-816). Trichophyton Mentagrophytes is the causative organism in most of the rest. Although yeast and other nondermatophytes can cause onychomycosis, the incidence is small. Additional fungal species were tested for susceptibility to treatment with Laureth-4 as described in Example 1.

Question: What does the source list for “Polyoxyethylene 4 lauryl ether [BRIJ 30]”?
Answer: MFC: >5000 µg/mL; MIC80: 78 µg/mL; MIC100: >5000 µg/mL

Test system: Trichophyton mentagrophytes
Assay: Additional fungal species susceptibility testing, Trichophyton mentagrophytes
Format: cell-based
Details: not given
Procedure: as §1

Question: Which results are given for “Polyoxyethylene 4 lauryl ether [BRIJ 30]”?
Answer: MFC: 625 µg/mL; MIC80: 5 µg/mL; MIC100: 625 µg/mL

Test system: Candida Parapsilosis
Assay: Additional fungal species susceptibility testing, Candida parapsilosis
Format: cell-based
Details: not given
Procedure: as §1

Question: For “Polyoxyethylene 4 lauryl ether [BRIJ 30]”, which MFC is on record?
Answer: Its MFC is over 5000 µg/mL.

Question: And the MIC80?
Answer: Its MIC80 is 15.5 µg/mL.

Question: What about the MIC100 of the same compound?
Answer: Its MIC100 is over 5000 µg/mL.

Test system: Trichophyton rubrum
Assay: Antifungal susceptibility testing (NCCLS M27-A), Trichophyton rubrum cultures in vitro
Format: cell-based
Details: 7 days at 30° C.
Procedure: Suspensions were then treated with various polyoxyethylene alkyl ethers at a range of concentrations, and incubated for 7 days at 30° C. […] Minimum fungicidal concentrations (MFCs) were determined as the lowest concentration of compound that killed at least 97% of the original inoculum, as compared with the verified inoculum count.

Question: With C[C@H](CCC(=O)NCCC[N+](C)(C)CCCS(=O)(=O)[O-])[C@H]1CC[C@H]2[C@@H]3[C@H](O)C[C@@H]4C[C@H](O)CC[C@]4(C)[C@H]3C[C@H](O)[C@]12C [CHAPS] as the compound, how does the MIC80 read?
Answer: Its MIC80 is 500 µg/mL (≈ 813 µM).

Question: Which MIC80 does the source give for CCCCCCCCO[C@@H]1O[C@H](CO)[C@@H](O)[C@H](O)[C@H]1O [n-octyl-β-D-glucopyranoside] here?
Answer: The MIC80 was 31.25 µg/mL (≈ 107 µM).

Question: With CCCCCCCCS[C@@H]1O[C@H](CO)[C@@H](O)[C@H](O)[C@H]1O [n-octyl-β-D-thioglucopyranoside] as the compound, how does the MIC80 read?
Answer: The MIC80 was 500 µg/mL (≈ 1620 µM).

Question: Which MIC80 does the source give for “Polyethylene glycol tert-octylphenyl ether [Triton X-100]” here?
Answer: The MIC80 was 31.25 µg/mL.

Question: With Polyoxyethylene 2 cetyl ether [BRIJ 52] as the compound, how does the MIC80 read?
Answer: Its MIC80 is 0.98 µg/mL.

Question: Which MIC80 does the source give for Polyoxyethylene 2 oleyl ether [BRIJ 93] here?
Answer: The MIC80 was 250 µg/mL.

Question: Which MIC80 does the source give for “Polyoxyethylene 2 stearyl ether [BRIJ 72]” here?
Answer: Its MIC80 is 0.98 µg/mL.

Question: Which MIC80 does the source give for “Polyoxyethylene 4 lauryl ether [BRIJ 30]” here?
Answer: Its MIC80 is 0.98 µg/mL.

Question: For “Polyoxyethylene 20 cetyl ether [BRIJ 58]”, which MIC80 is on record?
Answer: Its MIC80 is 0.49 µg/mL.

Question: Which MIC80 does the source give for “Polyoxyethylene 20 cetyl/stearyl ether [BRIJ 68]” here?
Answer: Its MIC80 is 1.95 µg/mL.

Question: For “Polyoxyethylene 20 oleyl ether [BRIJ 98]”, which MIC80 is on record?
Answer: The MIC80 was 250 µg/mL.

Question: With “Polyoxyethylene 20 stearyl ether [BRIJ 78]” as the compound, how does the MIC80 read?
Answer: Its MIC80 is 0.98 µg/mL.

Question: Which MIC80 does the source give for “Polyoxyethylene 23 lauryl ether [BRIJ 35]” here?
Answer: Its MIC80 is 0.49 µg/mL.

Question: Which MIC80 does the source give for “Polyoxyethylenesorbitan monolaurate [Tween 20]” here?
Answer: The MIC80 was 125 µg/mL.

Question: With “Polyoxyethylenesorbitan monooleate [Tween 80]” as the compound, how does the MIC80 read?
Answer: Its MIC80 is 250 µg/mL.

Question: With “Polyoxyethylenesorbitan monopalmitate [Tween 60]” as the compound, how does the MIC80 read?
Answer: Its MIC80 is 250 µg/mL.

Same assay, conditions: 7 days at 30° C., lowest concentration that inhibited 100% of fungal growth

Question: Which MIC100 does the source give for C[C@H](CCC(=O)NCCC[N+](C)(C)CCCS(=O)(=O)[O-])[C@H]1CC[C@H]2[C@@H]3[C@H](O)C[C@@H]4C[C@H](O)CC[C@]4(C)[C@H]3C[C@H](O)[C@]12C [CHAPS] here?
Answer: The MIC100 was 1000 µg/mL (≈ 1630 µM).

Question: For CCCCCCCCO[C@@H]1O[C@H](CO)[C@@H](O)[C@H](O)[C@H]1O [n-octyl-β-D-glucopyranoside], which MIC100 is on record?
Answer: Its MIC100 is 1000 µg/mL (≈ 3420 µM).

Question: For CCCCCCCCS[C@@H]1O[C@H](CO)[C@@H](O)[C@H](O)[C@H]1O [n-octyl-β-D-thioglucopyranoside], which MIC100 is on record?
Answer: Its MIC100 is 1000 µg/mL (≈ 3240 µM).

Question: Which MIC100 does the source give for “Polyethylene glycol tert-octylphenyl ether [Triton X-100]” here?
Answer: The MIC100 was 1000 µg/mL.

Question: Which MIC100 does the source give for Polyoxyethylene 2 cetyl ether [BRIJ 52] here?
Answer: The MIC100 was 3.9 µg/mL.

Question: For Polyoxyethylene 2 oleyl ether [BRIJ 93], which MIC100 is on record?
Answer: Its MIC100 is 250 µg/mL.

Question: Which MIC100 does the source give for “Polyoxyethylene 2 stearyl ether [BRIJ 72]” here?
Answer: The MIC100 was 0.98 µg/mL.

Question: Which MIC100 does the source give for “Polyoxyethylene 4 lauryl ether [BRIJ 30]” here?
Answer: The MIC100 was 1.95 µg/mL.

Question: Which MIC100 does the source give for “Polyoxyethylene 20 cetyl ether [BRIJ 58]” here?
Answer: The MIC100 was 0.98 µg/mL.

Question: For “Polyoxyethylene 20 cetyl/stearyl ether [BRIJ 68]”, which MIC100 is on record?
Answer: The MIC100 was 3.9 µg/mL.

Question: Which MIC100 does the source give for “Polyoxyethylene 20 oleyl ether [BRIJ 98]” here?
Answer: The MIC100 was 500 µg/mL.

Question: Which MIC100 does the source give for “Polyoxyethylene 20 stearyl ether [BRIJ 78]” here?
Answer: The MIC100 was 1.95 µg/mL.

Question: For “Polyoxyethylene 23 lauryl ether [BRIJ 35]”, which MIC100 is on record?
Answer: The MIC100 was 0.98 µg/mL.

Question: With “Polyoxyethylenesorbitan monolaurate [Tween 20]” as the compound, how does the MIC100 read?
Answer: The MIC100 was 500 µg/mL.

Question: With “Polyoxyethylenesorbitan monooleate [Tween 80]” as the compound, how does the MIC100 read?
Answer: Its MIC100 is 1000 µg/mL.

Question: With “Polyoxyethylenesorbitan monopalmitate [Tween 60]” as the compound, how does the MIC100 read?
Answer: Its MIC100 is 500 µg/mL.

Same assay, conditions: lowest concentration that killed at least 97% of the original inoculum

Question: Which MFC does the source give for Polyoxyethylene 2 cetyl ether [BRIJ 52] here?
Answer: Its MFC is 7.8 µg/mL.

Question: With Polyoxyethylene 2 oleyl ether [BRIJ 93] as the compound, how does the MFC read?
Answer: The MFC was 1000 µg/mL.

Question: With “Polyoxyethylene 2 stearyl ether [BRIJ 72]” as the compound, how does the MFC read?
Answer: The MFC was 3.9 µg/mL.

Question: With “Polyoxyethylene 4 lauryl ether [BRIJ 30]” as the compound, how does the MFC read?
Answer: The MFC was 1.95 µg/mL.

Question: For “Polyoxyethylene 20 cetyl ether [BRIJ 58]”, which MFC is on record?
Answer: The MFC was 1.95 µg/mL.

Question: Which MFC does the source give for “Polyoxyethylene 20 cetyl/stearyl ether [BRIJ 68]” here?
Answer: Its MFC is 15.6 µg/mL.

Question: Which MFC does the source give for “Polyoxyethylene 20 oleyl ether [BRIJ 98]” here?
Answer: Its MFC is 1000 µg/mL.

Question: With “Polyoxyethylene 20 stearyl ether [BRIJ 78]” as the compound, how does the MFC read?
Answer: The MFC was 3.9 µg/mL.

Question: Which MFC does the source give for “Polyoxyethylene 23 lauryl ether [BRIJ 35]” here?
Answer: Its MFC is 1.95 µg/mL.

Question: For “Polyoxyethylenesorbitan monolaurate [Tween 20]”, which MFC is on record?
Answer: Its MFC is 1000 µg/mL.

Question: For “Polyoxyethylenesorbitan monooleate [Tween 80]”, which MFC is on record?
Answer: The MFC was 1000 µg/mL.

Question: For “Polyoxyethylenesorbitan monopalmitate [Tween 60]”, which MFC is on record?
Answer: Its MFC is 1000 µg/mL.

Same assay, conditions: result in words

Question: With Polyoxyethylene 2 oleyl ether [BRIJ 93] as the compound, how does the fungicidal effect read?
Answer: The fungicidal effect was “loss of the effect”.

Question: For “Polyoxyethylene 20 oleyl ether [BRIJ 98]”, which fungicidal effect is on record?
Answer: Its fungicidal effect is “loss of the effect”.

Test system: Candida Albicans
Assay: Additional fungal species susceptibility testing, Candida albicans
Format: cell-based
Details: not given
Procedure: as §1

Question: Which results are given for “Polyoxyethylene 4 lauryl ether [BRIJ 30]”?
Answer: MFC: >5000 µg/mL; MIC80: >5000 µg/mL; MIC100: >5000 µg/mL

Test system: Scopulariopsis brevicaulis
Assay: Additional fungal species susceptibility testing, Scopulariopsis brevicaulis
Format: cell-based
Details: not given
Procedure: as §1

Question: Which MFC does the source give for “Polyoxyethylene 4 lauryl ether [BRIJ 30]” here?
Answer: Its MFC is over 5000 µg/mL.

Question: What about the MIC80 of the same compound?
Answer: The MIC80 was 78 µg/mL.

Question: What about the MIC100 of the same compound?
Answer: The MIC100 was over 5000 µg/mL.

Test system: not given
Assay: not given
Details: critical micelle content; no method given; cited from earlier work

Question: Which CMC does the source give for C[C@H](CCC(=O)NCCC[N+](C)(C)CCCS(=O)(=O)[O-])[C@H]1CC[C@H]2[C@@H]3[C@H](O)C[C@@H]4C[C@H](O)CC[C@]4(C)[C@H]3C[C@H](O)[C@]12C [CHAPS] here?
Answer: Its CMC is 6 to 10 mM.

Question: With CCCCCCCCO[C@@H]1O[C@H](CO)[C@@H](O)[C@H](O)[C@H]1O [n-octyl-β-D-glucopyranoside] as the compound, how does the CMC read?
Answer: The CMC was 20 to 25 mM.

Question: With CCCCCCCCS[C@@H]1O[C@H](CO)[C@@H](O)[C@H](O)[C@H]1O [n-octyl-β-D-thioglucopyranoside] as the compound, how does the CMC read?
Answer: Its CMC is 9 mM.

Question: With “Polyethylene glycol tert-octylphenyl ether [Triton X-100]” as the compound, how does the CMC read?
Answer: The CMC was 0.2 to 0.9 mM.

Question: For “Polyoxyethylene 23 lauryl ether [BRIJ 35]”, which CMC is on record?
Answer: The CMC was 0.09 mM.

Question: Which CMC does the source give for “Polyoxyethylenesorbitan monolaurate [Tween 20]” here?
Answer: Its CMC is 0.059 mM.

Question: Which CMC does the source give for “Polyoxyethylenesorbitan monooleate [Tween 80]” here?
Answer: Its CMC is 0.059 mM.

Question: With “Polyoxyethylenesorbitan monopalmitate [Tween 60]” as the compound, how does the CMC read?
Answer: The CMC was 0.059 mM.

Test system: Aspergillus flavus
Assay: Additional fungal species susceptibility testing, Aspergillus flavus
Format: cell-based
Details: not given
Procedure: as §1

Question: With “Polyoxyethylene 4 lauryl ether [BRIJ 30]” as the compound, how does the MFC read?
Answer: The MFC was over 5000 µg/mL.

Question: What about the MIC80 of the same compound?
Answer: The MIC80 was 39 µg/mL.

Question: And the MIC100?
Answer: The MIC100 was over 5000 µg/mL.
